# “Also recorded” adds a separate entry of the source.
# Assays:
# [1] = test system: MC3T3 E1 cells; assay: BrdU incorporation (DNA synthesis) in partially differentiated MC3T3 E1 osteoblastic cells; assay type: cell-based, murine; details: 24 h exposure to HU-308
# Protocol: (§1) In vitro effect of HU-308: Differentiating primary bone marrow stromal cells and MC3T3 E1 osteoblasts were initially incubated in osteogenic medium for 10 days followed by 2 h serum starvation. Ligands were dissolved in dimethylsulfoxide (DMSO) and further diluted to their final concentration using tissue culture medium. In the primary cultures, cells were counted after 48 h incubation in αMEM supplemented with 4% BSA and ligand. BrdU incorporation was determined in MC3T3 E1 cells after 24 h incubation with HU-308 preceded by 2 h with pertussis toxin (PTX). DNA content, tissue non-specific alkaline phosphatase (TNSALP) activity and calcium were determined in MC3T3 E1 cells grown for 20 days in osteogenic medium and supplemented with HU-308 in the last 14 days. The effect of HU-308 on osteoclast differentiation was measured in the osteoclastogenic system described above, supplemented with HU-308 dissolved initially in DMSO and diluted with medium. HU-308 was also tested in a RAW 264.7 cell grown for 7 days in RANKL-supplemented medium. For osteoclast-like cell counts the cultures were fixed in ethanol and TRAP-stained.
# [2] = test system: RAW 264.7 cells; assay: Osteoclast-like cell count in RAW 264.7 cell culture; assay type: cell-based; details: 7-day RAW 264.7 cell culture supplemented with M-CSF
# Protocol: as §1
# [3] = test system: mature MC3T3 E1 cells; assay: DNA content, TNSALP activity and calcium in mature MC3T3 E1 osteoblasts; assay type: cell-based, murine; details: 20 days osteogenic medium, HU-308 during last 14 days
# Protocol: as §1
# [4] = test system: diaphyseal bone marrow derived stromal cells; assay: Cell count, TNSALP activity and mineralization in differentiating primary bone marrow stromal cells (10 days osteogenic medium); assay type: cell-based, mice; details: for number of diaphyseal bone marrow derived stromal cells: cells grown 10 days in osteogenic medium, counted after 48 h with ligand
# Protocol: mRNA analysis: Primary osteoblastogenic cultures of stromal cells were prepared from femoral and tibial diaphyseal bone marrow of WT C57BL/6J mice and grown in “osteogenic medium” containing ascorbic acid, β-glycerophophate and dexamethasone (Sigma) as described by Frenkel et al. (17). Real-time RT-PCR analysis was carried out using Applied Biosystems Assay-on-Demand. Data was normalized GAPDH. Assay ID: GAPDH, Mm99999915_g1; CB1, Mm00432621_s1; CB2, Mm00438286_m1; PTHRc1, Mm00441046_m1; RUNX2, Mm00501578_m1; TNSALP, Mm00475831_m1. RT-PCR analysis was carried out using the primers described by Lee et al. (19).
# as §1
# [5] = test system: OVX C3H mice; assay: OVX-induced femoral bone loss, μCT and histomorphometry; assay type: in vivo; details: HU-308 10 mg/Kg/day i.p.
# Protocol: Animals: Mice with a deletion of the CNR2 gene (CB2^−/− mice) (9) were crossed for 10 generations to wild type C57BL/6J mice to generate a congenic C57BL/6J CB2^−/− strain. The effect of CB2 signalling on OVX-induced bone loss was analysed in normal C3H mice (Harlan, Israel) due to their high femoral bone density (10), which allows for a substantial amount of bone loss to occur. Because of the low trabecular bone volume density in C57BL/6J females (FIG. 8A), the absolute amount of OVX-induced bone loss in these animals is small and a large sample is required to achieve statistical significance. In addition, the number of calcein labelled packets (see below) in OVX C57BL/6J mice is often too small for the calculation of bone formation parameters in the trabecular compartment. HU-308, synthetic CB2 specific agonist with a MW of 414 g/mol, was prepared as described by Hildebrand et al. (11) and injected intraperitoneally to OVX and control mice once daily as ethanol/emulphor/saline (1:1:18) solution. To study bone formation, newly formed bone was vitally labelled in all reported animals by the fluorochrome calcein (Sigma), injected intraperitoneally (15 mg/Kg) four days and one day prior to sacrifice. Groups of 8-10 mice, 8-11 or 51 weeks old, were used in each experiment. The experimental protocols were approved by the Institutional Animal Care and Use Committee, Faculty of Medicine, the Hebrew University of Jerusalem, Israel and by the Regierungspräsidium Köln for the University of Bonn, Germany.
# Micro-computed tomographic (μCT) analysis: The μCT Analyses were performed as described in Example 1 above.
# Histomorphometry and immunohistochemistry: After μCT image acquisition, the specimens were embedded undecalcified in Technovit 9100 (Heraeus Kulzer, Wehrheim, Germany). Longitudinal sections through the mid-frontal plane were left unstained for dynamic histomorphometry based on the vital calcein double labeling. To identify osteoclasts, consecutive sections were stained for tartrate-resistant acid phosphatase (TRAP) (14). Parameters were determined according to a standardized nomenclature (15). Immunohistochemistry was performed using paraffin-embedded decalcified sections (16) with a polyclonal first antibody raised against the human CB2(20-33) peptide (Cayman Ann Arbor, Mich.; Cat. No. 101550). The same peptide (Cayman Ann Arbor, Mich.; Cat. No. 301550) was used to block protein-antibody complex formation in control staining.
# Statistical Analyses: Differences between CB2^−/− and WT mice were analysed by t-test. HU-308 and vehicle treated OVX and sham-OVX mice were analysed by ANOVA. When significant differences were indicated by ANOVA, group means were compared using the Tukey test for pairwise comparisons.
# [6] = test system: primary bone marrow derived monocytes; assay: Osteoclast differentiation, TRAP-positive osteoclast-like cell count in bone marrow derived monocyte culture with M-CSF and RANKL; assay type: cell-based, Mouse; details: 5 days in the presence of M-CSF and RANKL
# Protocol: Mouse femoral monocytes were separated on a Ficoll gradient and grown in culture for 5 days in medium containing the osteoclast differentiation factors M-CFS and RANKL as described by Zou et al FASEB J 2002; 16:274-82). At the end of incubation cultures were analyzed for CB2 and FAAH expression by RT-PCR as described above, and were stained with an osteoclast marker tartarate-resistant acid phosphatase for direct observation of differentiated osteoclasts.
# as §1, with “Ligands were dissolved in dimethylsulfoxide (DMSO) and further diluted to their final concentration using tissue culture medium.” left out, “HU-308 was also tested in a RAW 264.7 cell grown for 7 days in RANKL-supplemented medium. For osteoclast-like cell counts the cultures were fixed in ethanol and TRAP-stained.” left out
# [7] = test system: 11 week-old C3H (Harlan) mice; assay: In vivo bone formation activity, calcein dynamic histomorphometry of distal femoral metaphysis
# Protocol: The endocannabinoid 2-arachidonoyl glycerol (2AG) and the CB1 cannabinoid receptor antagonist N-(piperidin-1-yl)-5-(4-chlorophenyl)-1-(2,4-dichlorophenyl)4-methyl-1H-pyrazole-3-carboxamide hydrochloride (SR-141761A; Panikashvili et al., Nature 413: 527-531 (2001)] were dissolved in 1:1:18 ethanol:emulfor:saline (v/v/v) vehicle. Different dosages of each agent were daily injected intraperitoneally to 11 week-old C3H (Harlan) mice. 2AG was administered at 0 (vehicle control), 0.5, 5, and 20 mg/Kg body weight per day for 9 days; SR-141761A was administered at 1 and 10 mg/Kg body weight per day for 9 days.
# To assess the in vivo bone formation activity the mice were given 15 mg/Kg body weight calcein intrapertoneally, four days and one day (same day as the last 2AG injection) prior to sacrifice. Femoral bones were separated immediately after sacrifice and subjected, undecalcified, to histological processing. Dynamic bone histomorphometric parameters were analyzed in the distal metaphysis (secondary spongiosa) in unstained longitudinal mid-saggital sections, using the procedure described by Parfitt et al. [J. Bone Miner. Res. 2: 595-610 (1987)]. The data obtained were statistically analyzed by Mann-Whitney U-test to determine significance of differences between the treatments.
# [8] = early differentiation stage (10 days osteogenic medium)
# [9] = 4 weeks from ovariectomy, distal femoral metaphysis
# [10] = 2AG up to 5 mg/Kg/day i.p. for 9 days, followed by a plateau
# [11] = SR-141761A up to 10 mg/Kg/day i.p. for 9 days, data not shown
smiles,measurement,setting,value
"CCCCCCC(C)(C)c1cc(OC)c([C@H]2C=C(CO)C3CC2C3(C)C)c(OC)c1 (single isomer, unassigned; (+)) [HU-308, (+)-(1-a-H,-(3-H,5-a-H)-4-(2,6-dimethoxy-4-(1,1-dimethylhept-yl)phenyl]-6,6 dimethylbicycloj3.1.1]hept-2-ene-2-carbinol]",DNA synthesis (BrdU uptake),[1],stimulation
same,number of osteoclast-like cells,[2],reduced
same,TNSALP activity,[3],markedly enhanced
same,accumulation of extracellular mineral,[3],markedly enhanced
same,cell number (measured as DNA content),[3]; compared with partially differentiated cells,milder
same,number of diaphyseal bone marrow derived stromal cells,[4],potently increased
same,TNSALP activity,[4]; [8],unaffected
same,matrix mineralization,[4]; [8],unaffected
same,bone formation in the trabecular compartment,[5]; 4 weeks from ovariectomy,did not stimulate
same,OVX-induced trabecular bone loss (trabecular bone volume density),[5]; [9],attenuation
same,osteoclast number,[5]; [9],further inhibited
same,endocortical bone formation,"[5]; 4 weeks, mid-diaphysis",vast stimulation
same,size of the medullary cavity,"[5]; 4 weeks, mid-diaphysis",significant reduction
same,cortical thickness,"[5]; 4 weeks, mid-diaphysis, exceeded OVX and sham-OVX mice",marked increase
same,number of osteoclast-like cells,[6],dose dependently inhibited
"CCCCC/C=C\C/C=C\C/C=C\C/C=C\CCCC(=O)OC(CO)CO [2AG, 2-arachidonoyl glycerol]",uptake of fluorescently labeled calcein in bone tissue (fluorescent histological images),[7]; 2AG 5 mg/Kg/day vs vehicle-treated controls,visibly increased
same,mineralizing perimeter (MP) vs control,"[7]; 2AG 5 and 20 mg/Kg/day i.p. for 9 days, p=0.019",substantially and significantly higher
same,bone-formation rate (BFR) higher than the vehicle control,"[7]; 2AG 5 and 20 mg/Kg/day intraperitoneally for 9 days, p=0.04",up to 44%
same,mineral appositional rate,[7]; 2AG i.p. for 9 days,no significant effect
same,"bone-formation rate (BFR), dose response",[7]; [10],dose-dependent stimulation; also recorded: significant positive dose response effect
same,"mineralizing perimeter (MP), dose response",[7]; [10],dose-dependent increase
"CCCCC/C=C\C/C=C\C/C=C\C/C=C\CCCCOC(CO)CO [Noladin ether, 2-arachidonyl glyceryl ether, reference compound]",number of diaphyseal bone marrow derived stromal cells,[4],no significant effect
"Cc1c(C(=O)NN2CCCCC2)nn(-c2ccc(Cl)cc2Cl)c1-c1ccc(Cl)cc1.Cl [SR-141761A, N-(piperidin-1-yl)-5-(4-chlorophenyl)-1-(2,4-dichlorophenyl)4-methyl-1H-pyrazole-3-carboxamide hydrochloride]",BFR (osteoblastic activity) vs vehicle control,[7]; [11],higher (but not statistically different)
same,MP (osteoblast number) vs vehicle control,[7]; [11],higher and statistically different

# Source: patent US7749953B2, “Methods compositions and articles of manufacture for modulating bone growth” (Yissum Research Development Company of the Hebrew …, priority 2002, dated 2010)
